Reference: US7939534B2, “Certain chemical entities, compositions, and methods” (Cytokinetics, Inc., priority 2006, dated 2011)

Target: T1, chicken gizzard smooth muscle myosin subfragment-1 chemically crosslinked to either cardiac or skeletal actin (Gallus gallus, UniProt P10587)
T1 construct: chicken gizzard smooth muscle myosin subfragment-1; from tissue; host or cells: chicken gizzard
Experiment: Dose dependent smooth muscle myosin ATPase modulation (pyruvate kinase/horseradish peroxidase/pyruvate oxidase-coupled ATPase assay)
Assay type: biochemical
Conditions: read-out: IC50 Arithmetic Mean
Protocol: In Vitro Model of Dose Dependent Smooth Muscle Myosin Atpase Modulation
Screening assays were performed using a pyruvate kinase and lactate dehydrogenase-coupled ATPase assay containing the following reagents: Potassium PIPES (50 mM ), MgCl2 (3 mM ), KCl (100 mM ), ATP (0.15 mM ), DTT (1 mM ), BSA (0.1 mg/ml), NADH (0.5 mM ), PEP (1.5 mM ), pyruvate kinase (4 U/ml), lactate dehydrogenase (8 U/ml), and antifoam (50 ppm) (concentrations expressed are final assay concentrations). The pH was adjusted to 6.80 at 22° C. by addition of potassium hydroxide. Lead optimization assays were performed with a more sensitive pyruvate kinase/horseradish peroxidase/pyruvate oxidase-coupled ATPase assay containing the following reagents: Potassium PIPES (12 mM ), MgCl2 (2 mM ), KCl (100 mM ), ATP (0.15 mM ), BSA (0.05 mg/ml), potassium phosphate (2 mM ), amplex red (0.1 mM ), PEP (0.1 mM ), pyruvate kinase (4 U/ml), horseradish peroxidase (0.5 U/ml), pyruvate oxidase (0.5 U/ml), and antifoam (50 ppm) (concentrations expressed are final assay concentrations). The pH was adjusted to 7.00 at 22° C. by addition of potassium hydroxide.
The protein components specific to this assay are chicken gizzard smooth muscle myosin subfragment-1 that has been chemically crosslinked to either cardiac or skeletal actin using an excess of 1-Ethyl-3-[3-dimethylaminopropyl]carbodiimide hydrochloride and N-hydroxysuccinimide. The exact concentration of the crosslinked smooth muscle myosin in the assay is determined empirically, by titration to achieve a desired rate of ATP hydrolysis. The concentration varies between protein preparations due to variations in the fraction of active molecules in each preparation.
Compound dose response assays are performed by first preparing a dilution series of test compound, each with an assay mixture containing potassium PIPES, MgCl2, KCl, ATP, BSA, potassium phosphate, amplex red, PEP, crosslinked smooth muscle actomyosin (subfragment-1), antifoam, and water. The assay is started by adding an equal volume of solution containing potassium Pipes, MgCl2, KCl, BSA, potassium phosphate, pyruvate kinase, horseradish peroxidase, pyruvate oxidase, antifoam, and water. ATP hydrolysis is monitored by measuring the fluorescence of amplex red (excitation at 480 nm, emission at 615 nm). The resulting dose response curve is fit by the 4 parameter equation y=Bottom+((Top−Bottom)/(1+((IC50/X)^Hill))). The IC50 is defined as the concentration at which ATPase activity is midway between the top and bottom of the dose response curve.

| SMILES | IC50 [nM] |
| --- | --- |
| CC(=O)N1CC=C(c2ccc(C(=O)NCc3cccnc3)c(NCCc3cccc(F)c3)n2)CC1 [Compound 56, (6-(1-acetyl(4-1,2,5,6-tetrahydropyridyl))-2-{[2-(3-fluorophenyl)ethyl]amino}(3-pyridyl))-N-(3-pyridylmethyl)carboxamide] | 430 |
| O=C(NCc1cccnc1)c1ccc(C2=CCNCC2)nc1NCCc1cccc(F)c1 [Compound 57, (2-{[2-(3-fluorophenyl)ethyl]amino}-6-(4-1,2,5,6-tetrahydropyridyl)(3-pyridyl))-N-(3-pyridylmethyl)carboxamide] | 10500 |
| CC(C)(C)OC(=O)N1CC=C(c2ccc(C(=O)NCc3cccnc3)c(NCCc3cccc(F)c3)n2)CC1 [Compound 58, tert-butyl 4-(6-{[2-(3-fluorophenyl)ethyl]amino}-5-[N-(3-pyridylmethyl)carbamoyl]-2-pyridyl)-1,2,5,6-tetrahydropyridinecarboxylate] | 2150 |
| O=C(NCc1cccnc1)c1ccc(C2CCCC2)nc1NCCc1cccc(F)c1 [Compound 59, (6-cyclopentyl-2-{[2-(3-fluorophenyl)ethyl]amino}(3-pyridyl))-N-(3-pyridylmethyl)carboxamide] | 4410 |
| O=C(NCc1cccnc1)c1ccc(C2=CCC3(CC2)OCCO3)nc1NCCc1cccc(F)c1 [Compound 60, (6-(1,4-dioxaspiro[4.5]dec-7-en-8-yl)-2-{[2-(3-fluorophenyl)ethyl]amino}(3-pyridyl))-N-(3-pyridylmethyl)carboxamide] | 1820 |
| COC(=O)N1CC=C(c2ccc(C(=O)NCc3cccnc3)c(NCCc3cccc(F)c3)n2)CC1 [Compound 61, methyl 4-(6-{[2-(3-fluorophenyl)ethyl]amino}-5-[N-(3-pyridylmethyl)carbamoyl]-2-pyridyl)-1,2,5,6-tetrahydropyridinecarboxylate] | 100 |
| O=C(NCc1cccnc1)c1ccc(C2=CCCC2)nc1NCCc1cccc(F)c1 [Compound 62, (6-cyclopent-1-enyl-2-{[2-(3-fluorophenyl)ethyl]amino}(3-pyridyl))-N-(3-pyridylmethyl)carboxamide] | 637 |
| C[C@H](CNC(=O)c1cc(F)c(N2CCCC2)nc1NCCc1cccc(F)c1)NC(=O)CNC(=O)OC(C)(C)C [Compound 63, N-{(1R)-2-[(5-fluoro-2-{[2-(3-fluorophenyl)ethyl]amino}-6-pyrrolidinyl(3-pyridyl))carbonylamino]-isopropyl}-2-[(tert-butoxy)carbonylamino]acetamide] | 15100 |
| O=C1CC=C(c2ccc(C(=O)NCc3cccnc3)c(NCCc3cccc(F)c3)n2)CC1 [Compound 64, (2-{[2-(3-fluorophenyl)ethyl]amino}-6-(4-oxocyclohex-1-enyl)(3-pyridyl))-N-(3-pyridylmethyl)carboxamide] | 671 |
| CC(C)(C)OC(=O)NCc1ncccc1CNC(=O)c1cc(F)c(N2CC[C@@H](F)C2)nc1NCCc1cccc(F)c1 [Compound 65, (6-((3R)-3-fluoropyrrolidinyl)-5-fluoro-2-{[2-(3-fluorophenyl)ethyl]amino}(3-pyridyl))-N-[(2-{[(tert-butoxy)carbonylamino]methyl}(3-pyridyl))methyl]carboxamide] | 8240 |
| O=C(NCc1cccnc1)c1ccc(C2CCCCC2)nc1NCCc1cccc(F)c1 [Compound 66, (6-cyclohexyl-2-{[2-(3-fluorophenyl)ethyl]amino}(3-pyridyl))-N-(3-pyridylmethyl)carboxamide] | 4170 |
| O=C(NCc1cccnc1)c1ccc(C2=CCCCC2)nc1NCCc1cccc(F)c1 [Compound 67, (6-cyclohex-1-enyl-2-{[2-(3-fluorophenyl)ethyl]amino}(3-pyridyl))-N-(3-pyridylmethyl)carboxamide] | 117 |
| CC(C)(C)OC(=O)NCCCN1C(=O)CC[C@@H]1CNC(=O)c1cc(F)c(N2CCCC2)nc1NCCc1cccc(F)c1 [Compound 68, N-[((2R)-1-{3-[(tert-butoxy)carbonylamino]propyl}-5-oxopyrrolidin-2-yl)methyl](5-fluoro-2-{[2-(3-fluorophenyl)ethyl]amino}-6-pyrrolidinyl(3-pyridyl))carboxamide] | 3320 |
| CN(C)C(=O)N1CC=C(c2ccc(C(=O)NCc3cccnc3)c(NCCc3cccc(F)c3)n2)CC1 [Compound 69, (6-[1-(N,N-dimethylcarbamoyl)(4-1,2,5,6-tetrahydropyridyl)]-2-{[2-(3-fluorophenyl)ethyl]amino}(3-pyridyl))-N-(3-pyridylmethyl)carboxamide] | 452 |
| O=C(NCc1cccnc1)c1cc(Br)c(N2CCCC2)nc1NCCc1cccc(F)c1 [Compound 70, (5-bromo-2-{[2-(3-fluorophenyl)ethyl]amino}-6-pyrrolidinyl(3-pyridyl))-N-(3-pyridylmethyl)carboxamide] | 295 |
| CN1CC=C(c2ccc(C(=O)NCc3cccnc3)c(NCCc3cccc(F)c3)n2)CC1 [Compound 71, (2-{[2-(3-fluorophenyl)ethyl]amino}-6-(1-methyl(4-1,2,5,6-tetrahydropyridyl))(3-pyridyl))-N-(3-pyridylmethyl)carboxamide] | 4360 |
| COC(=O)N1C=CC(c2ccc(C(=O)NCc3cccnc3)c(NCCc3cccc(F)c3)n2)CC1 (centres unmarked) [Compound 72, methyl 4-(6-{[2-(3-fluorophenyl)ethyl]amino}-5-[N-(3-pyridylmethyl)carbamoyl]-2-pyridyl)-1,4,5,6-tetrahydropyridinecarboxylate] | 5770 |
| O=C(NCc1cccnc1)c1ccc(C2=NCCN2)nc1NCCc1cccc(F)c1 [Compound 73, (2-{[2-(3-fluorophenyl)ethyl]amino}-6-(2-imidazolin-2-yl)(3-pyridyl))-N-(3-pyridylmethyl)carboxamide] | 56400 |
| CC(C)(C)OC(=O)NCC(=O)N1CCC[C@@H]1CNC(=O)c1cc(F)c(N2CCCC2)nc1NCCc1cccc(F)c1 [Compound 77, N-[((2R)-1-{2-[(tert-butoxy)carbonylamino]acetyl}pyrrolidin-2-yl)methyl](5-fluoro-2-{[2-(3-fluorophenyl)ethyl]amino}-6-pyrrolidinyl(3-pyridyl))carboxamide] | 13600 |
| NCc1ncccc1CNC(=O)c1cc(F)c(N2CCCC2)nc1NCCc1cccc(F)c1 [Compound 78, N-{[2-(aminomethyl)(3-pyridyl)]methyl}(5-fluoro-2-{[2-(3-fluorophenyl)ethyl]amino}-6-pyrrolidinyl(3-pyridyl))carboxamide] | 25.9 |
| O=C(NC[C@H]1CCCN1)c1cc(F)c(N2CCCC2)nc1NCCc1cccc(F)c1 [Compound 79, N-[((2R)pyrrolidin-2-yl)methyl](5-fluoro-2-{[2-(3-fluorophenyl)ethyl]amino}-6-pyrrolidinyl(3-pyridyl))carboxamide] | 1800 |
| CC(C)(C)OC(=O)N1CCC[C@@H]1CNC(=O)c1cc(F)c(N2CCCC2)nc1NCCc1cccc(F)c1 [Compound 80, tert-butyl (2R)-2-{[(5-fluoro-2-{[2-(3-fluorophenyl)ethyl]amino}-6-pyrrolidinyl(3-pyridyl))carbonylamino]methyl}pyrrolidinecarboxylate] | 6860 |
| NCc1ncccc1CNC(=O)c1cc(F)c(C2CC2)nc1NCCc1cccc(F)c1 [Compound 81, N-{[2-(aminomethyl)(3-pyridyl)]methyl}(6-cyclopropyl-5-fluoro-2-{[2-(3-fluorophenyl)ethyl]amino}(3-pyridyl))carboxamide] | 1320 |
